# Legend:
# pH in water = type: physicochemical; settings: aqueous solution
# [1] = humans; cited from earlier work
pH in water (pH in water),Compound,safe daily use [1]
4.5,"C[C@@H](O)CC(=O)OC(CO)CO [KM, 1,3 Dihydroxypropan-2-yl (R)-3-hydroxybutanoate]",–
–,"Cn1c(=O)c2c(n(C)c1=O)n(C)c(=O)n2C [TH, theacrine]",up to 300 mg/day
4.0,nicotinamide riboside [NR],–
